Laboratory results from patent publication US11179322B2, “Methods and compositions for treating tumors with TTFields and sorafenib” (Novocure GmbH, priority 2018, dated 2021).
pIC50: −log10 of the molar value.

Columns and labels:
[1] = system: Huh-7D12 cells; experiment: Clonogenic survival; assay type: cell-based, human
Procedure: (§1) Sorafenib was obtained from BioVision, USA.
(§2) At the end of treatment, cells were removed with trypsin, counted, plated in 6-well plates (300 cells/plate) and incubated for 2-3 weeks in CO2 incubator at 37° C. When colonies reached 40-100 cells/colony, they were fixed with 100% methanol, stained with 0.5% crystal violet (Sigma), photographed, and the number of clones was quantified using ImageJ program.

[2] = system: HepG2 cells; experiment: Clonogenic survival; assay type: cell-based, human
Procedure: as §1, §2

[3] = system: HepG2 cells; experiment: Apoptosis induction (FITC Annexin V / 7-AAD flow cytometry)
Procedure: (§5) The exemplary effects of the combined treatment of TTFields and sorafenib was tested using the following human HCC cell lines: HepG2 (ATCC) and Huh-7D12 (Sigma). All cells were grown in a humidified incubator supplied with 5% CO2. HepG2 were maintained in EMEM, supplemented with 10% FBS, 2 mmol/L glutamine, Pen-Strep solution (100 units/ml Penicillin and 0.1 mg/ml Streptomycin), 1 mmol/L sodium pyruvate and 1% NEAA. […] Sorafenib was obtained from BioVision, USA.
(§6) For apoptosis analysis, cells were removed with Trypsin immediately after 72 h treatment, washed twice with ice-cold PBS with 1% FBS, and stained using FITC Annexin V Apoptosis Detection Kit and 7-AAD (BioLegend, USA). Early, late, and total apoptosis was then quantified using the EC800 flow cytometer (Sony Biotechnology, Japan).

[4] = system: N1S1 Hepatocellular Carcinoma; experiment: N1S1 orthotopic HCC rat model, tumor volume by MRI; assay type: in vivo; conditions: Sprague Dawley rats, N1S1 liver tumor, sorafenib 10 mg/kg/day IP + TTFields 150 kHz 2.86 V/cm
Procedure: In this experiment, the volume of the tumor was measured using MRI on day 6 (one day before treatment start) and day 14 (one day after the end of treatment); and each data point in FIG. 7 represents the volume of the tumor on day 14 divided by the volume of the tumor on day 6. Thus, numbers greater than 1 represent growth in the tumor volume, and numbers smaller than 1 represent a tumor that has shrunk between day 6 and day 14.
In the first part, the efficacy of different Sorafenib concentrations in combination with TTFields was tested, and one concentration was used during future experiments (10 mg/kg/day over 5 days). In the following experiments, the combined treatment of a single Sorafenib concentration and TTFields (150 kHz) was tested.
All animals were injected orthotopically to the left lobe of the liver with N1S1 Hepatocellular Carcinoma model (Garin E. et al., 2005) by day 0 as described in SOP-BI-036. The peritoneum was closed using sutures and the wound was closed using clips. On day 6, all animals underwent first MRI (as described in SOP-BI-029) and were randomly divided into groups. […]
Tumor volume was determined based on MRI scans on days 7, 14 and day 21 after injection. […] Tumor volume was measured by manual segmentation of the tumor using ITK-SNAP version 3.6.0-rc1 free software.

[5] = system: Huh-7D12 cells; experiment: Apoptosis induction (FITC Annexin V / 7-AAD flow cytometry)
Procedure: as §5, §6

[6] = system: Huh-7D12 cells; experiment: Cytotoxicity assay and overall effect (cell counts by flow cytometry); assay type: cell-based, human
Procedure: (§3) All combination experiments were performed at a frequency of 150 kHz. In these examples, the electric field intensity was 1.0 V/cm for HepG2 and 1.7 V/cm for Huh-7D12 cells. Both cell lines were grown at various sorafenib concentrations (0.1-3.0 μM), and were treated with TTFields for 72 hours. […] The number of cells was determined at the end of treatment and is expressed as a percentage of control cells.
as §1
(§4) TTFields (1.0-1.7 V/cm RMS, 150 kHz) were applied for 72 hours to cell lines using the Inovitro™ system. At the end of treatment, inhibition of tumor cell growth was analysed quantitatively based on cell counts performed on EC800 flow cytometer (Sony Biotechnology, Japan).

[7] = system: HepG2 cells; experiment: as above; assay type: cell-based, human
Procedure: as §3, §1, §4

With `CNC(=O)c1cc(Oc2ccc(NC(=O)Nc3ccc(Cl)c(C(F)(F)F)c3)cc2)ccn1` [sorafenib, 4-[4-[[4-chloro-3-(trifluoromethyl)phenyl]carbamoylamino]phenoxy]-N-methylpyridine-2-carboxamide] the “clonogenic potential, sorafenib monotherapy” value ([1]; Huh-7D12, escalating dose of sorafenib alone) was “reduction in the clonogenic potential”, the “clonogenic survival, combined treatment of TTFields and sorafenib” value ([1]; Huh-7D12, sorafenib + TTFields 150 kHz 1.7 V/cm, 72 hours) was “additional reduction in the clonogenic survival” and the “clonogenic potential, sorafenib monotherapy” value ([2]; HepG2, escalating dose of sorafenib alone) was “reduction in the clonogenic potential”. For the same molecule, the “clonogenic survival, combined treatment of TTFields and sorafenib” value ([2]; HepG2, sorafenib + TTFields 150 kHz 1.0 V/cm, 72 hours) was “additional reduction in the clonogenic survival”, the “apoptotic events, sorafenib alone” value ([3]; HepG2, 72 hours, sorafenib from no drug to 3 μM) was “increased apoptotic events” and the “additional increase in apoptosis, sorafenib with TTFields” value ([3]; HepG2, sorafenib + TTFields 150 kHz 1.0 V/cm, 72 hours, range stated for both cell lines) was 10-45%. The “tumor volume (day 14 divided by day 6, MRI), combination of TTFields and sorafenib” value [4] was “synergistic decrease in tumor volume”, the “apoptotic events, sorafenib alone” value ([5]; Huh-7D12, 72 hours, sorafenib from no drug to 3 μM) was “increased apoptotic events” and the “additional increase in apoptosis, sorafenib with TTFields” value ([5]; Huh-7D12, sorafenib + TTFields 150 kHz 1.7 V/cm, 72 hours, range stated for both cell lines) was 10-45%. The pIC50 ([6]; Homo sapiens, Huh-7D12, sorafenib alone, 72 hours, read-out: IC50 (number of cells, percentage of control)) was roughly 6.00, the “cytotoxicity of combined treatment of TTFields and sorafenib” value ([6]; Huh-7D12, sorafenib 0.1-3.0 μM + TTFields 150 kHz 1.7 V/cm, 72 hours, 2-way ANOVA p<0.001) was “enhanced cytotoxicity” and the “overall effect, sorafenib in combination with TTFields vs sorafenib alone” value ([6]; Huh-7D12, sorafenib 0.1-3.0 μM, TTFields 1.7 V/cm) was “improvement provided by TTFields can be seen even at low levels of sorafenib”. For the same molecule, the “cytotoxicity of combined treatment of TTFields and sorafenib” value ([7]; HepG2, sorafenib 0.1-3.0 μM + TTFields 150 kHz 1.0 V/cm, 72 hours, 2-way ANOVA p<0.001) was “enhanced cytotoxicity”, the “overall effect, sorafenib in combination with TTFields vs sorafenib alone” value ([7]; HepG2, sorafenib 0.1-3.0 μM, TTFields 1.0 V/cm) was “improvement provided by TTFields can be seen even at low levels of sorafenib” and the pIC50 ([7]; Homo sapiens, HepG2, sorafenib alone, 72 hours, read-out: IC50 (number of cells, percentage of control)) was roughly 6.00.
